Measurements as given in PMC8800111 (The Journal of Biological Chemistry, 2021).

What was measured:
Type in all cases: cell-based
[1] = target: proteins of U3A human fibrosarcoma cells (4462 proteins detected) (Homo sapiens, UniProt P54886); conditions: protein ALDH18A1; U3A cells
[2] = target: proteins of U3A human fibrosarcoma cells (4462 proteins detected) (Homo sapiens, UniProt P61923); conditions: protein COPZ1; U3A cells
[3] = target: proteins of U3A human fibrosarcoma cells (4462 proteins detected) (Homo sapiens, UniProt P35221); conditions: protein CTNNA1; U3A, 10 μM, 2 h
[4] = target: proteins of U3A human fibrosarcoma cells (4462 proteins detected) (Homo sapiens, UniProt Q16774); conditions: protein GUK1; U3A, 10 μM, 2 h
[5] = target: proteins of U3A human fibrosarcoma cells (4462 proteins detected) (Homo sapiens, UniProt O75170); conditions: protein PPP6R2; soluble abundance after heat, U3A cells
[6] = target: proteins of U3A human fibrosarcoma cells (4462 proteins detected) (Homo sapiens, UniProt Q9H4E7); conditions: protein DEF6; U3A cells
[7] = target: proteins of U3A human fibrosarcoma cells (4462 proteins detected) (Homo sapiens, UniProt Q96PK6); conditions: protein RBM14; soluble abundance after heat, U3A cells
[8] = target: proteins of U3A human fibrosarcoma cells (4462 proteins detected) (Homo sapiens, UniProt P29353); conditions: protein SHC1; U3A cells
[9] = target: proteins of U3A human fibrosarcoma cells (4462 proteins detected) (Homo sapiens, UniProt Q6YN16); conditions: protein HSDL2; U3A cells
[10] = target: proteins of U3A human fibrosarcoma cells (4462 proteins detected) (Homo sapiens, UniProt Q9Y5J6); conditions: protein TIMM10B; U3A cells
[11] = target: proteins of U3A human fibrosarcoma cells (4462 proteins detected) (Homo sapiens, UniProt Q658Y4); conditions: protein FAM91A1; soluble abundance after heat, U3A cells
[12] = target: proteins of U3A human fibrosarcoma cells (4462 proteins detected) (Homo sapiens, UniProt Q75QN2); conditions: protein INTS8; U3A cells
[13] = target: proteins of U3A human fibrosarcoma cells (4462 proteins detected) (Homo sapiens, UniProt O95104); conditions: protein SCAF4; U3A cells
[14] = target: proteins of U3A human fibrosarcoma cells (4462 proteins detected) (Homo sapiens, UniProt P23528); conditions: protein CFL1, U3A cells
[15] = target: proteins of U3A human fibrosarcoma cells (4462 proteins detected) (Homo sapiens, UniProt Q8TA86); conditions: protein RP9, U3A cells
[16] = target: proteins of U3A human fibrosarcoma cells (4462 proteins detected) (Homo sapiens, UniProt Q6P1L8); conditions: protein MRPL14, U3A cells
[17] = target: proteins of U3A human fibrosarcoma cells (4462 proteins detected) (Homo sapiens, UniProt P52747); conditions: protein ZNF143; U3A, 10 μM, 2 h
[18] = target: proteins of U3A human fibrosarcoma cells (4462 proteins detected) (Homo sapiens, UniProt Q8IVL0); conditions: protein NAV3, U3A cells
[19] = target: proteins of U3A human fibrosarcoma cells (4462 proteins detected) (Homo sapiens, UniProt Q9BSL1); conditions: protein UBAC1; soluble abundance after heat, U3A cells
[20] = target: proteins of U3A human fibrosarcoma cells (4462 proteins detected) (Homo sapiens, UniProt P0C2W1); conditions: protein FBXO45, U3A cells
[21] = target: proteins of U3A human fibrosarcoma cells (4462 proteins detected) (Homo sapiens, UniProt P50213); conditions: protein IDH3A; U3A cells
[22] = target: proteins of U3A human fibrosarcoma cells (4462 proteins detected) (Homo sapiens, UniProt O14976); conditions: protein GAK; U3A, 10 μM, 2 h
[23] = target: proteins of U3A human fibrosarcoma cells (4462 proteins detected) (Homo sapiens, UniProt Q9P2K3); conditions: protein RCOR3; U3A cells
[24] = target: proteins of U3A human fibrosarcoma cells (4462 proteins detected) (Homo sapiens, UniProt P05388); conditions: protein RPLP0; RPLP0P6; U3A cells
[25] = target: proteins of U3A human fibrosarcoma cells (4462 proteins detected) (Homo sapiens, UniProt Q9H2U1); conditions: protein DHX36, U3A cells
[26] = target: proteins of U3A human fibrosarcoma cells (4462 proteins detected) (Homo sapiens, UniProt Q969G3); conditions: protein SMARCE1, U3A cells
[27] = target: proteins of U3A human fibrosarcoma cells (4462 proteins detected) (Homo sapiens, UniProt Q8NAV1); conditions: protein PRPF38A; U3A cells
[28] = target: proteins of U3A human fibrosarcoma cells (4462 proteins detected) (Homo sapiens, UniProt Q9HC38); conditions: protein GLOD4, U3A cells
[29] = target: proteins of U3A human fibrosarcoma cells (4462 proteins detected) (Homo sapiens, UniProt O94829); conditions: protein IPO13; U3A cells
[30] = target: proteins of U3A human fibrosarcoma cells (4462 proteins detected) (Homo sapiens, UniProt P55769); conditions: protein NHP2L1; soluble abundance after heat, U3A cells

proteins of U3A human fibrosarcoma cells (4462 proteins detected) (Homo sapiens, UniProt Q658Y4), sequence (Q658Y4 whole entry): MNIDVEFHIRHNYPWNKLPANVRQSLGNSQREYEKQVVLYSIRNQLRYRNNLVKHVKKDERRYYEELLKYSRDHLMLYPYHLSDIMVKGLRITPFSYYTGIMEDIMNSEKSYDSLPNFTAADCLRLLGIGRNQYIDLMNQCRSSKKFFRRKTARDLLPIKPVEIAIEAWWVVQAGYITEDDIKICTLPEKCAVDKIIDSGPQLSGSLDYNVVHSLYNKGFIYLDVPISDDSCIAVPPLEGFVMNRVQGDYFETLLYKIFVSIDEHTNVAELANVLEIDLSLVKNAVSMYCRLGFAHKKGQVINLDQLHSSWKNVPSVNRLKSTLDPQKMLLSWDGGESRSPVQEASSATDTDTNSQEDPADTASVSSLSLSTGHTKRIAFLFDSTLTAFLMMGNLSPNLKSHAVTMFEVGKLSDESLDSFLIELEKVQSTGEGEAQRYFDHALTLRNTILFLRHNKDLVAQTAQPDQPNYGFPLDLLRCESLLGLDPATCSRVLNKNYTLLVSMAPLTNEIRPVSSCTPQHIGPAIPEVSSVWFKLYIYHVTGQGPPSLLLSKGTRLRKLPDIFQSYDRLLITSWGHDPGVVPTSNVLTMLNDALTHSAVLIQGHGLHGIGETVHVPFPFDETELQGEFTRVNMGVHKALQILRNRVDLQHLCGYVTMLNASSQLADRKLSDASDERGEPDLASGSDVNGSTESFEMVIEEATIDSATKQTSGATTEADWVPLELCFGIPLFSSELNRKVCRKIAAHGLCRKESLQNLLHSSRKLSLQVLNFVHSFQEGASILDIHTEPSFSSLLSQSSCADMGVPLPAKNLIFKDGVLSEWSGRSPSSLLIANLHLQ
proteins of U3A human fibrosarcoma cells (4462 proteins detected) (Homo sapiens, UniProt Q96PK6), sequence (Q96PK6 whole entry): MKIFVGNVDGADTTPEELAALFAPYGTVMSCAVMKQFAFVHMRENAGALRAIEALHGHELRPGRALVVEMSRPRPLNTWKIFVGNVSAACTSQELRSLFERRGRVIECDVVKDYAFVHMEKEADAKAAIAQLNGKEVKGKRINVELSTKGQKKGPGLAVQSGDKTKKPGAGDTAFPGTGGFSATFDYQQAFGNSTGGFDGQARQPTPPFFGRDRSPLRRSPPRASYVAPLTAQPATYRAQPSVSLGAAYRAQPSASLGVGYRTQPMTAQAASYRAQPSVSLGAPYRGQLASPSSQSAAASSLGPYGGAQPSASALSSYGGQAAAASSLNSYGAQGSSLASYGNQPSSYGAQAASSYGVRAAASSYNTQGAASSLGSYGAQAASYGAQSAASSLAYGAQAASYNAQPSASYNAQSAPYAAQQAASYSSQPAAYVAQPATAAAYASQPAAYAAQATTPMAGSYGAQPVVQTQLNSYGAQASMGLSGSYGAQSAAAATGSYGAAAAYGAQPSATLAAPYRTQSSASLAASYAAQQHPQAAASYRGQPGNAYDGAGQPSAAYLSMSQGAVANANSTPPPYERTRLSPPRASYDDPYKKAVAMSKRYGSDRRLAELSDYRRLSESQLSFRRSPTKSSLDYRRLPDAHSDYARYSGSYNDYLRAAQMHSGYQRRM
proteins of U3A human fibrosarcoma cells (4462 proteins detected) (Homo sapiens, UniProt P0C2W1), sequence (P0C2W1 whole entry): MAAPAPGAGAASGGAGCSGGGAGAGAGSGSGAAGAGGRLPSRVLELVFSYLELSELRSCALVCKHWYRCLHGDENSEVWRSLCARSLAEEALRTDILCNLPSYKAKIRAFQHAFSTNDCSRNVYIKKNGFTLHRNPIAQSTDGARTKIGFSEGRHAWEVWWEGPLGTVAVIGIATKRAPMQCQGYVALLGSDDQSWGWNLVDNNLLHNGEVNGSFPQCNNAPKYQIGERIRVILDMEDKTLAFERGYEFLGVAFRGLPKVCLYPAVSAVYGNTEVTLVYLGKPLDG
proteins of U3A human fibrosarcoma cells (4462 proteins detected) (Homo sapiens, UniProt Q9H4E7), sequence (Q9H4E7 whole entry): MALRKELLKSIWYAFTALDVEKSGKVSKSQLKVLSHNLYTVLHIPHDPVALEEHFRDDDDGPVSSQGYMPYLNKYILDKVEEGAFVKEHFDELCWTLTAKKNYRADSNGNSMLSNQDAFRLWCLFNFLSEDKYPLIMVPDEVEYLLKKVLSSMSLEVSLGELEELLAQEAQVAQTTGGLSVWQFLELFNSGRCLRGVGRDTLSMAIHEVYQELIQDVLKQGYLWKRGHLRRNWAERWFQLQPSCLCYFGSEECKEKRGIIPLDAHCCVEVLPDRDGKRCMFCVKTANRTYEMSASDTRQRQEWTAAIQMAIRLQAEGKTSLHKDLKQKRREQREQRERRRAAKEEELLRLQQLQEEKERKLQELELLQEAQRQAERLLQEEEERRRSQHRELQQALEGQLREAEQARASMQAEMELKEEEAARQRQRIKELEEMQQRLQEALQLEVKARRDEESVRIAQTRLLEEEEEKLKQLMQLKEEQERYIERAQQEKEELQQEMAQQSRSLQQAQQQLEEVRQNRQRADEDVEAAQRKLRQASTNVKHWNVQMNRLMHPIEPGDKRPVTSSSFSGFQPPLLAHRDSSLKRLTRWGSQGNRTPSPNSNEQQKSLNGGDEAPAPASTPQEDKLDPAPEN
proteins of U3A human fibrosarcoma cells (4462 proteins detected) (Homo sapiens, UniProt O95104), sequence (O95104 whole entry): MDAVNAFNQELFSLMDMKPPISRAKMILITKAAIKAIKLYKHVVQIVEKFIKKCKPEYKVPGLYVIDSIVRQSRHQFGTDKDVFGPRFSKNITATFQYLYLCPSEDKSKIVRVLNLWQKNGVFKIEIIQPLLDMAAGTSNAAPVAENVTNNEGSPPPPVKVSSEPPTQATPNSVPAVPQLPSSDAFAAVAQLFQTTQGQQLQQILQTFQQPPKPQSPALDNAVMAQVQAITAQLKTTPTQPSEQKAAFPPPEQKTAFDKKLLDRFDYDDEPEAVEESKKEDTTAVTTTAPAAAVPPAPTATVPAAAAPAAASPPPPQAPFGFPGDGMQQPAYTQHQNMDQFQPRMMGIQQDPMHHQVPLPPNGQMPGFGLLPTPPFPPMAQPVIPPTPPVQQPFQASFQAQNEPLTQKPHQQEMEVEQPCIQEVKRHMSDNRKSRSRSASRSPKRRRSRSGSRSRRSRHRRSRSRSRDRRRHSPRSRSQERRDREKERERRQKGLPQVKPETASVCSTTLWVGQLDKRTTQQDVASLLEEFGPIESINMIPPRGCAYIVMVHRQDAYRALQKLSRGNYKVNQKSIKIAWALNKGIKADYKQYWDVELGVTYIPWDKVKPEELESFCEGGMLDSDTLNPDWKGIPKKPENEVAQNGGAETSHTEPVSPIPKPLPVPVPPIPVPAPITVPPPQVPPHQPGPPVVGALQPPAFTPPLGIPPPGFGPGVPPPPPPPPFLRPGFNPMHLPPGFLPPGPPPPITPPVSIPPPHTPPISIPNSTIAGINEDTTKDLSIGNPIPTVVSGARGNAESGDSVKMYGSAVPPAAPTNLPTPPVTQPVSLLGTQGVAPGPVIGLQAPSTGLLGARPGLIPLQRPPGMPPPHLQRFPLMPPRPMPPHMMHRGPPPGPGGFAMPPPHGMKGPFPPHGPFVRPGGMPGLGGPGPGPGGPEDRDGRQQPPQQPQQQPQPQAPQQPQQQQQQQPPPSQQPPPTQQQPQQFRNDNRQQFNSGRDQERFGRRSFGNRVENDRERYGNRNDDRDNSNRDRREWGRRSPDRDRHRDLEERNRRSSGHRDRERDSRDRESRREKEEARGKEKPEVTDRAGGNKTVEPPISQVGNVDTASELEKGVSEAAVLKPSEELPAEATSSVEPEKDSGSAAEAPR
proteins of U3A human fibrosarcoma cells (4462 proteins detected) (Homo sapiens, UniProt P61923), sequence (P61923 whole entry): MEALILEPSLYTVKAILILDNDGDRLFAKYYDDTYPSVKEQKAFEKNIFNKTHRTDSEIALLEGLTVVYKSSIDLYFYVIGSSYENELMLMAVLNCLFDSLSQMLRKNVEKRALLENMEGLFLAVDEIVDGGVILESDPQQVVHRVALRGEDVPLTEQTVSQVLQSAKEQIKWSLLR
proteins of U3A human fibrosarcoma cells (4462 proteins detected) (Homo sapiens, UniProt P23528), sequence (P23528 whole entry): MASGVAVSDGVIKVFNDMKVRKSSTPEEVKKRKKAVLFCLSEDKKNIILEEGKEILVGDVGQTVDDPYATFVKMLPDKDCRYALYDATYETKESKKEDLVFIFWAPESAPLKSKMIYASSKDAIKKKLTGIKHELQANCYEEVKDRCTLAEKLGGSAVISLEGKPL
proteins of U3A human fibrosarcoma cells (4462 proteins detected) (Homo sapiens, UniProt P35221), sequence (P35221 whole entry): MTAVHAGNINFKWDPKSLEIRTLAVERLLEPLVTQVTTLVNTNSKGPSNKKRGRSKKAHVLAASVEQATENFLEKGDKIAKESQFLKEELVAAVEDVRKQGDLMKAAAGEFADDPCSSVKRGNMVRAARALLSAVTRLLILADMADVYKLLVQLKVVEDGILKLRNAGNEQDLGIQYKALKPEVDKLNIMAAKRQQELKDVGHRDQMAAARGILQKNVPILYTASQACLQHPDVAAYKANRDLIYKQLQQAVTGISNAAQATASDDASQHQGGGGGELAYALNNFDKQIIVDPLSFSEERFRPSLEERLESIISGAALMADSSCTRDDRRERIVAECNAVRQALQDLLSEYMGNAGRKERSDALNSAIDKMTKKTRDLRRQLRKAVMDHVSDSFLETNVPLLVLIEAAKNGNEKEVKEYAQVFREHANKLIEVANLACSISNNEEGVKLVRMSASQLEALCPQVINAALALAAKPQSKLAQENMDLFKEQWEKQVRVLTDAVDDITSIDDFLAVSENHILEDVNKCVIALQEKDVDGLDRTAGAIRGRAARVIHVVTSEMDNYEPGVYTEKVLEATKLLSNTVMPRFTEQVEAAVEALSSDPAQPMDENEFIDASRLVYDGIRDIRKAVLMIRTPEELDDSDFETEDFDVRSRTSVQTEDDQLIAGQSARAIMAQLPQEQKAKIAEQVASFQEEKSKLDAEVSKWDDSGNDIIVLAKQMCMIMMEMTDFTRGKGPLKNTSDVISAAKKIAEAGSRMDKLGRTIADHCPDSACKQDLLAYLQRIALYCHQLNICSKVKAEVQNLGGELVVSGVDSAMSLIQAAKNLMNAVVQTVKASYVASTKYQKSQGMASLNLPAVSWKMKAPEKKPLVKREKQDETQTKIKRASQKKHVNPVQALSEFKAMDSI
proteins of U3A human fibrosarcoma cells (4462 proteins detected) (Homo sapiens, UniProt Q9Y5J6), sequence (Q9Y5J6 whole entry): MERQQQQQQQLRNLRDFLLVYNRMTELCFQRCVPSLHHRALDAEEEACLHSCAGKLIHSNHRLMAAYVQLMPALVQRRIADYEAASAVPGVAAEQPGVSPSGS

## CCc1nc(N)nc(N)c1-c1ccc(Cl)cc1 [pyrimethamine]
[1]
  Log2 (PYR/DMSO): 0.17
[2]
  Log2 (PYR/DMSO): 0.18
[3]
  Log2 (PYR/DMSO), CTNNA1: 0.23
[4]
  Log2 (PYR/DMSO), GUK1: -0.14
[5]
  Log2 (PYR/DMSO): 0.13
[6]
  Log2 (PYR/DMSO): 0.22
[7]
  Log2 (PYR/DMSO): 0.14
[8]
  Log2 (PYR/DMSO): 0.19
[9]
  Log2 (PYR/DMSO): 0.22
[10]
  Log2 (PYR/DMSO): 0.18
[11]
  Log2 (PYR/DMSO): 0.14
[12]
  Log2 (PYR/DMSO): 0.18
[13]
  Log2 (PYR/DMSO): 0.19
[14]
  Log2 (PYR/DMSO): -0.04
[15]
  Log2 (PYR/DMSO): -0.05
[16]
  Log2 (PYR/DMSO): -0.04
[17]
  Log2 (PYR/DMSO), ZNF143: -0.16
[18]
  Log2 (PYR/DMSO): -0.04
[19]
  Log2 (PYR/DMSO): 0.13
[20]
  Log2 (PYR/DMSO): -0.04
[21]
  Log2 (PYR/DMSO): 0.16
[22]
  Log2 (PYR/DMSO), GAK: -0.20
[23]
  Log2 (PYR/DMSO): 0.21
[24]
  Log2 (PYR/DMSO): 0.23
[25]
  Log2 (PYR/DMSO): -0.03
[26]
  Log2 (PYR/DMSO): -0.05
[27]
  Log2 (PYR/DMSO): 0.16
[28]
  Log2 (PYR/DMSO): -0.04
[29]
  Log2 (PYR/DMSO): 0.19
[30]
  Log2 (PYR/DMSO): 0.14
